PubChem BioAssay (NCI)
Values joined by “and” are separate entries in the source; they are usually repeats but may differ in a detail not shown here. Equal values may be shown once.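 How tested: cells in 96-well plates exposed to compound for 48 hours at five concentrations. GI50 marks 50% less growth. TGI is the concentration that stops growth completely.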

Key:
Experiment in all cases: growth of human tumour cells (NCI), 48 h
K-562 leukemia = test system: K-562 leukemia
TK-10 renal = test system: TK-10 renal
NCI/ADR-RES ovarian = test system: NCI/ADR-RES ovarian
OVCAR-5 ovarian = test system: OVCAR-5 ovarian
EKVX NSCLC = test system: EKVX NSCLC
MCF7 breast = test system: MCF7 breast
NCI-H522 lung = test system: NCI-H522 lung
CCRF-CEM leukemia = test system: CCRF-CEM leukemia
HCC-2998 colon = test system: HCC-2998 colon
MDA-N = test system: MDA-N
NCI-H460 lung = test system: NCI-H460 lung
CAKI-1 renal = test system: CAKI-1 renal
OVCAR-3 ovarian = test system: OVCAR-3 ovarian
SNB-19 CNS = test system: SNB-19 CNS
SK-MEL-28 melanoma = test system: SK-MEL-28 melanoma
SK-OV-3 ovarian = test system: SK-OV-3 ovarian
UACC-257 melanoma = test system: UACC-257 melanoma
COLO 205 colon = test system: COLO 205 colon
MDA-MB-231 breast = test system: MDA-MB-231 breast
HL-60(TB) leukemia = test system: HL-60(TB) leukemia
LOX IMVI melanoma = test system: LOX IMVI melanoma
RXF 393 renal = test system: RXF 393 renal
OVCAR-8 ovarian = test system: OVCAR-8 ovarian
HCT-116 colon = test system: HCT-116 colon
T-47D breast = test system: T-47D breast
DU-145 prostate = test system: DU-145 prostate
HCT-15 colon = test system: HCT-15 colon
NCI-H23 lung = test system: NCI-H23 lung
SNB-75 CNS = test system: SNB-75 CNS
UACC-62 melanoma = test system: UACC-62 melanoma
SR leukemia = test system: SR leukemia
SK-MEL-2 melanoma = test system: SK-MEL-2 melanoma
SF-295 CNS = test system: SF-295 CNS
NCI-H226 lung = test system: NCI-H226 lung
786-0 renal = test system: 786-0 renal
PC-3 prostate = test system: PC-3 prostate
KM12 colon = test system: KM12 colon
SK-MEL-5 melanoma = test system: SK-MEL-5 melanoma
HT29 colon = test system: HT29 colon
HOP-62 NSCLC = test system: HOP-62 NSCLC
A498 renal = test system: A498 renal
HOP-92 NSCLC = test system: HOP-92 NSCLC
SW-620 colon = test system: SW-620 colon
HS 578T breast = test system: HS 578T breast
UO-31 renal = test system: UO-31 renal
RPMI-8226 leukemia = test system: RPMI-8226 leukemia
SF-268 CNS = test system: SF-268 CNS
MDA-MB-435 = test system: MDA-MB-435
U251 CNS = test system: U251 CNS
ACHN renal = test system: ACHN renal
SN12C renal = test system: SN12C renal
BT-549 breast = test system: BT-549 breast
SF-539 CNS = test system: SF-539 CNS
MOLT-4 leukemia = test system: MOLT-4 leukemia
M14 melanoma = test system: M14 melanoma
IGROV1 ovarian = test system: IGROV1 ovarian
MALME-3M melanoma = test system: MALME-3M melanoma
A549 NSCLC = test system: A549 NSCLC
OVCAR-4 ovarian = test system: OVCAR-4 ovarian

O=P(O)(O)OC1C(OP(=O)(O)O)C(OP(=O)(O)O)C(OP(=O)(O)O)C(OP(=O)(O)O)C1OP(=O)(O)O (stereo not drawn)
GI50 (K-562 leukemia): > 2 mM | TGI (K-562 leukemia): > 2 mM | GI50 (TK-10 renal): > 1.36 mM | TGI (TK-10 renal): > 2 mM | GI50 (NCI/ADR-RES ovarian): > 2 mM | TGI (NCI/ADR-RES ovarian): > 2 mM | GI50 (OVCAR-5 ovarian): > 2 mM | TGI (OVCAR-5 ovarian): > 2 mM | GI50 (EKVX NSCLC): > 0.1 mM | TGI (EKVX NSCLC): > 2 mM | GI50 (MCF7 breast): > 2 mM | TGI (MCF7 breast): > 2 mM | GI50 (NCI-H522 lung): > 2 mM | TGI (NCI-H522 lung): > 2 mM | GI50 (CCRF-CEM leukemia): > 0.1 mM | TGI (CCRF-CEM leukemia): > 2 mM | GI50 (HCC-2998 colon): > 2 mM | TGI (HCC-2998 colon): > 2 mM | GI50 (MDA-N): > 2 mM | TGI (MDA-N): > 2 mM | GI50 (NCI-H460 lung): > 2 mM | TGI (NCI-H460 lung): > 2 mM | GI50 (CAKI-1 renal): > 1.56 mM | TGI (CAKI-1 renal): > 2 mM | GI50 (OVCAR-3 ovarian): > 2 mM | TGI (OVCAR-3 ovarian): > 2 mM | GI50 (SNB-19 CNS): > 2 mM | TGI (SNB-19 CNS): > 2 mM | GI50 (SK-MEL-28 melanoma): > 2 mM | TGI (SK-MEL-28 melanoma): > 2 mM | GI50 (SK-OV-3 ovarian): > 2 mM | TGI (SK-OV-3 ovarian): > 2 mM | GI50 (UACC-257 melanoma): > 2 mM | TGI (UACC-257 melanoma): > 2 mM | GI50 (COLO 205 colon): > 0.1 mM and > 0.5 mM and 1.94 mM | TGI (COLO 205 colon): > 2 mM | GI50 (MDA-MB-231 breast): > 2 mM | TGI (MDA-MB-231 breast): > 2 mM | GI50 (HL-60(TB) leukemia): > 2 mM | TGI (HL-60(TB) leukemia): > 2 mM | GI50 (LOX IMVI melanoma): > 2 mM | TGI (LOX IMVI melanoma): > 2 mM | GI50 (RXF 393 renal): > 0.5 mM and 1.72 mM | TGI (RXF 393 renal): > 2 mM | GI50 (OVCAR-8 ovarian): > 2 mM | TGI (OVCAR-8 ovarian): > 2 mM | GI50 (HCT-116 colon): > 2 mM | TGI (HCT-116 colon): > 2 mM | GI50 (T-47D breast): > 2 mM | TGI (T-47D breast): > 2 mM | GI50 (DU-145 prostate): > 2 mM | TGI (DU-145 prostate): > 2 mM | GI50 (HCT-15 colon): > 2 mM | TGI (HCT-15 colon): > 2 mM | GI50 (NCI-H23 lung): > 2 mM | TGI (NCI-H23 lung): > 2 mM | GI50 (SNB-75 CNS): > 1.12 mM | TGI (SNB-75 CNS): > 2 mM | GI50 (UACC-62 melanoma): > 2 mM | TGI (UACC-62 melanoma): > 2 mM | GI50 (SR leukemia): > 1.78 mM | TGI (SR leukemia): > 2 mM | GI50 (SK-MEL-2 melanoma): > 2 mM | TGI (SK-MEL-2 melanoma): > 2 mM | GI50 (SF-295 CNS): > 2 mM | TGI (SF-295 CNS): > 2 mM | GI50 (NCI-H226 lung): > 1.07 mM | TGI (NCI-H226 lung): > 1.85 mM | GI50 (786-0 renal): > 2 mM | TGI (786-0 renal): > 2 mM | GI50 (PC-3 prostate): > 2 mM | TGI (PC-3 prostate): > 2 mM | GI50 (KM12 colon): > 1.19 mM | TGI (KM12 colon): > 2 mM | GI50 (SK-MEL-5 melanoma): > 1.56 mM | TGI (SK-MEL-5 melanoma): > 2 mM | GI50 (HT29 colon): > 2 mM | TGI (HT29 colon): > 2 mM | GI50 (HOP-62 NSCLC): > 2 mM | TGI (HOP-62 NSCLC): > 2 mM | GI50 (A498 renal): > 0.5 mM and 1.19 mM | TGI (A498 renal): > 2 mM | GI50 (HOP-92 NSCLC): > 0.1 mM | TGI (HOP-92 NSCLC): > 1.88 mM | GI50 (SW-620 colon): > 2 mM | TGI (SW-620 colon): > 2 mM | GI50 (HS 578T breast): > 2 mM | TGI (HS 578T breast): > 2 mM | GI50 (UO-31 renal): > 2 mM | TGI (UO-31 renal): > 2 mM | GI50 (RPMI-8226 leukemia): > 2 mM | TGI (RPMI-8226 leukemia): > 2 mM | GI50 (SF-268 CNS): > 2 mM | TGI (SF-268 CNS): > 2 mM | GI50 (MDA-MB-435): > 1.77 mM | TGI (MDA-MB-435): > 2 mM | GI50 (U251 CNS): > 2 mM | TGI (U251 CNS): > 2 mM | GI50 (ACHN renal): > 1.7 mM | TGI (ACHN renal): > 2 mM | GI50 (SN12C renal): > 2 mM | TGI (SN12C renal): > 2 mM | GI50 (BT-549 breast): > 1.69 mM | TGI (BT-549 breast): > 2 mM | GI50 (SF-539 CNS): > 2 mM | TGI (SF-539 CNS): > 2 mM | GI50 (MOLT-4 leukemia): > 1.51 mM | TGI (MOLT-4 leukemia): > 2 mM | GI50 (M14 melanoma): > 2 mM | TGI (M14 melanoma): > 2 mM | GI50 (IGROV1 ovarian): > 2 mM | TGI (IGROV1 ovarian): > 2 mM | GI50 (MALME-3M melanoma): > 2 mM | TGI (MALME-3M melanoma): > 2 mM | GI50 (A549 NSCLC): > 2 mM | TGI (A549 NSCLC): > 2 mM | GI50 (OVCAR-4 ovarian): > 0.1 mM | TGI (OVCAR-4 ovarian): > 2 mM
